Assay results taken from patent US20200407717A1, “METHODS OF MODULATING ANTISENSE ACTIVITY” (Ionis Pharmaceuticals, Inc., priority 2018, published 2020).
In the oligonucleotide strings, read from the 5' end, every base follows the letter of its sugar. An asterisk marks phosphorothioate; unmarked linkages are phosphodiester. Other units and linkages are bracketed, terminal groups are in braces. A string of capitals states the bases alone. e = 2'-O-(2-methoxyethyl) (MOE); {FITC} = fluorescein label; [5mC] = 5-methylcytosine; d = 2'-deoxy (DNA)

How the values were obtained:
[1] = molecular target: T1, Purified recombinant EGF (Homo sapiens, UniProt P01133); experiment: Membrane binding assay, EGF
T1 construct: purchased ThermoFisher PHG0311L
Protocol: (§1) A membrane binding assay was performed to test the binding affinities of modified oligonucleotides to EGF and EGFR. Purified recombinant EGF (PHG0311L, ThermoFisher) or EGFR protein (PV3872, ThermoFisher) were incubated with FITC-labeled phosphorothioate oligonucleotide, compound no. 256903 or FITC-labeled phosphate oligonucleotide, PO-ASO, in binding buffer (20 mM Tris-HCl, pH 7.5, 150 mM NaCl, 1 mM DTT, 10% glycerol) for 1 hr at 37° C. Each reaction contained purified EGF at 3 nM to 3 μM or recombinant EGFR at 5 nM to 150 nM. Samples were loaded onto a hyband ECL nitrocellulose membrane (GE Healthcare) and soaked in wash buffer (20 mM Tris-HcCl, pH 7.5, 250 mM NaCl). Protein-bound ASOs were transferred to the membrane by applying a vaccum in a 96-well Bio-Rad Bio-Dot apparatus. After washing, membranes were air-dried and scanned using a phoshoimager (GE Healthcare). Kds were calculated for compound no. 256903 using Prism. The results below represent an average of three replicate experiments. […] In contrast, compound no. 256903 bound to both EGF and EGFR, with a higher affinity for EGFR than for EGF.

[2] = molecular target: T2, EGFR (Homo sapiens, UniProt P00533); experiment: Membrane binding assay, EGFR; set-up: purchased ThermoFisher PV3872
Protocol: as §1

[3] = molecular target: T1, Purified recombinant EGF; experiment: Membrane binding assay, EGF; conditions: [EGF] 2.5 nM
[4] = molecular target: T2, EGFR; experiment: Membrane binding assay, EGFR; set-up: purchased ThermoFisher PV3872; conditions: EGFR 2.3 nM (head prints [EGF])

T1 sequence (P01133 971-1023 limits assumed): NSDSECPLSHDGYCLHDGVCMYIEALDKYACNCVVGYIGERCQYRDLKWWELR

## FITC-^mCesTesGes^mCesTesAdsGds^mCds^mCdsTds^mCdsTdsGdsGdsAdsTesTesTesGesAe (antisense {FITC}-e[5mC]*eT*eG*e[5mC]*eT*dA*dG*d[5mC]*d[5mC]*dT*d[5mC]*dT*dG*dG*dA*eT*eT*eT*eG*eA) [compound 256903]
[1]; EGF 3 nM to 3 μM
  interaction with EGF: bound
[1]; [EGF] 5 nM
  Relative intensity (%): 10.2%
[1]; [EGF] 10 nM
  Relative intensity (%): 12.0%
[1]; [EGF] 20.9 nM
  Relative intensity (%): 12.8%
[1]; [EGF] 41.9 nM
  Relative intensity (%): 13.7%
[1]; [EGF] 93.8 nM
  Relative intensity (%): 15.7%
[1]; [EGF] 187.5 nM
  Relative intensity (%): 17.0%
[1]; [EGF] 375 nM
  Relative intensity (%): 22.3%
[1]; [EGF] 750 nM
  Relative intensity (%): 72.3%
[1]; [EGF] 1500 nM
  Relative intensity (%): 95.2%
[1]; [EGF] 3000 nM
  Relative intensity (%): 97.3%
[1]; binding affinity for EGF, average of three replicate experiments
  Kd: 570 ± 170 nM
[2]; EGFR 4.7 nM (head prints [EGF])
  Relative intensity (%): 9.0%
[2]; EGFR 5 nM to 150 nM
  interaction with EGFR: bound
[2]; EGFR 9.4 nM (head prints [EGF])
  Relative intensity (%): 9.0%
[2]; EGFR 18.8 nM (head prints [EGF])
  Relative intensity (%): 10.3%
[2]; EGFR 37.5 nM (head prints [EGF])
  Relative intensity (%): 40.5%
[2]; EGFR 75 nM (head prints [EGF])
  Relative intensity (%): 80.0%
[2]; EGFR 150 nM (head prints [EGF])
  Relative intensity (%): 102.7%
[2]; binding affinity for EGFR, average of three replicate experiments
  Kd: 51.5 ± 9.3 nM
[3]
  Relative intensity (%): 8.8%
[4]
  Relative intensity (%): 7.0%
